Test results from ChEMBL document CHEMBL1201862, “PubChem BioAssay data set” (2004).
Active and inactive are the calls of the source.

Legend:
[1] = biological target: Estrogen receptor (Homo sapiens, UniProt P03372);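 note: potency for inhibiting coactivator peptide recruitment to the receptor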
[2] = biological target: Estrogen receptor beta (Homo sapiens, UniProt Q92731);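 note: recombinant ER-beta bound to coactivator SRC1 peptide in presence of estradiol agonist; inhibitors block coactivator peptide binding and lower the FRET signal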
[3] = biological target: FAD-linked sulfhydryl oxidase ALR (Homo sapiens, UniProt P55789); assay: ALR-catalysed DTT oxidation blockers – biochemical, H2O2 detection, luminescence, cherry-pick, dose response (AID 493248)
[4] = biological target: Neuropeptide Y receptor type 2 (Homo sapiens, UniProt P49146); assay: IC50 for human NPY-Y2 blockade – cell-based, counter-screen for NPY-Y1 antagonist project, dose response (AID 1278); assay type: functional
[5] = biological target: Neuropeptide Y receptor type 1 (Homo sapiens, UniProt P25929); assay: IC50 of human NPY-Y1 blockers – cell-based, dose response (AID 1277); assay type: functional
[6] = biological target: Genome polyprotein (dengue virus type 2, UniProt P29990); assay: flavivirus cap methylation enzyme inhibition – biochemical, confirmation dose response, primary screen (AID 588689); assay type: functional
[7] = NIH-3T3 fibroblast cytotoxicity, dose response, cytotoxicity control, cell-based, fluorescence, Alamar Blue, secondary assay (AID 2327); assay type: functional;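 note: NIH-3T3 mouse fibroblasts cultured with fluconazole at 8 µg/mL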
[8] = tested on: BJ; assay: BJ-TERT fibroblast viability loss – cell-based, RAS-independent, luminescence, dose response (AID 1933); assay type: functional; settings: Homo sapiens
[9] = tested on: BJ; assay: cells; assay type: functional, cell-based; settings: Homo sapiens
[10] = fluconazole-exposed Candida albicans growth modulators – fluorescence, retest, confirmation (AID 2467); assay type: functional, cell-based
[11] = Trypanosoma cruzi growth suppression in host cells – NIH3T3 host cells, beta-gal luminescence, confirmation (AID 2044); assay type: functional, cell-based;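 note: intracellular parasites grown in NIH/3T3 mouse fibroblasts as host cells; luminescent beta-galactosidase reporter signal from transgenic T. cruzi replicating inside host cells; inhibitors lower the luminescence signal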
[12] = biological target: T1, Calpain-2 catalytic subunit (Sus scrofa, UniProt P43367); assay: m-calpain protease blockers, concentration series – biochemical, fluorogenic peptide substrate, dose response (AID 1420); assay type: functional
T1 sequence (P43367 whole entry): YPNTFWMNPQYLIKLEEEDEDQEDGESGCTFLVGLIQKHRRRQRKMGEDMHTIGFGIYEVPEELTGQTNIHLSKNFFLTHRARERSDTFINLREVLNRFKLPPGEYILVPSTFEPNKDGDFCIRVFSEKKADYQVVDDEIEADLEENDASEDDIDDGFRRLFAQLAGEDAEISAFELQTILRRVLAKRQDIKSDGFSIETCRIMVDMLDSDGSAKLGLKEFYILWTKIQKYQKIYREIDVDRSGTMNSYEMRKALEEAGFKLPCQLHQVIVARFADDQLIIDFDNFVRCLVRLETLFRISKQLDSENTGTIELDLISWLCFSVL

[13] = NIH3T3 cell viability loss – ATP luminescence, mouse fibroblasts, counter-screen, dose response (AID 2010); assay type: functional, cell-based;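 note: cells exposed to compound for about 90 hours before reading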
[14] = tested on: BJ; assay: BJ-TERT-LT-ST fibroblast viability loss – cell-based, RAS-independent, luminescence, dose response (AID 1935); assay type: functional; settings: Homo sapiens;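 note: BJ fibroblasts immortalized with TERT plus LT and ST oncogenes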
[15] = biological target: Ephrin type-A receptor 4 (Mus musculus, UniProt Q03137); assay: EphA4 ligand-binding antagonists – biochemical, colorimetric, mouse EphA4, primary screen (AID 689); assay type: functional
[16] = DRD fibroblast viability loss – cell-based, non-viral oncogenic, luminescence, dose response (AID 1934); assay type: functional; settings: Homo sapiens
[17] = biological target: Voltage-dependent T-type calcium channel subunit alpha-1H (Homo sapiens, UniProt O95180); assay type: functional;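 note: channel activity triggered by adding a high calcium stimulation buffer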
[18] = biological target: Nonstructural protein 1 (Influenza A virus, UniProt Q194T2); assay type: functional, Influenza A virus (A/California/07/2009(H1N1))
[19] = biological target: Cytochrome P450 3A4 (Homo sapiens, UniProt P08684);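 note: CYP3A4 tested as one member of a cytochrome P450 panel screen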
[20] = cells

Chain of Neuropeptide Y receptor type 2 (P49146 whole entry): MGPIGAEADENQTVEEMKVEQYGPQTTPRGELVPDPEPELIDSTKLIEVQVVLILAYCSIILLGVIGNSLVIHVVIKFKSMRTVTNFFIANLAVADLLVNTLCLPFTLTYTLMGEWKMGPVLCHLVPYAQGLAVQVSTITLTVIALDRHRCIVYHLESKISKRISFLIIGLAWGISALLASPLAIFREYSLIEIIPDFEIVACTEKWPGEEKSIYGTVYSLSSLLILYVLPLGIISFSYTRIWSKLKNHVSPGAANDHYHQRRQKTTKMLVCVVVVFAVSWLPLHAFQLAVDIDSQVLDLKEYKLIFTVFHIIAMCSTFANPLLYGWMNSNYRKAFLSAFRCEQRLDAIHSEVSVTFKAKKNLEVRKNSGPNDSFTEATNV
Chain of Neuropeptide Y receptor type 1 (P25929 whole entry): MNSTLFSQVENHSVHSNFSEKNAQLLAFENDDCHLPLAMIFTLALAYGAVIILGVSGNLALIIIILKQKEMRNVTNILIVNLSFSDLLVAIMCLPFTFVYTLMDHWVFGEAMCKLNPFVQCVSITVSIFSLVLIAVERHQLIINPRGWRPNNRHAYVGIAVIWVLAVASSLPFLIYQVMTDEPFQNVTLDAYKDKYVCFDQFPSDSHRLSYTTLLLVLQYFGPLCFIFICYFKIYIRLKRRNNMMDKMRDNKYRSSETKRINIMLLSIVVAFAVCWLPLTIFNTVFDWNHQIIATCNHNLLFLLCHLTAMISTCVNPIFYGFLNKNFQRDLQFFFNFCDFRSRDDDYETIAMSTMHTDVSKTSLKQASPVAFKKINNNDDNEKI
Chain of Estrogen receptor (P03372 whole entry): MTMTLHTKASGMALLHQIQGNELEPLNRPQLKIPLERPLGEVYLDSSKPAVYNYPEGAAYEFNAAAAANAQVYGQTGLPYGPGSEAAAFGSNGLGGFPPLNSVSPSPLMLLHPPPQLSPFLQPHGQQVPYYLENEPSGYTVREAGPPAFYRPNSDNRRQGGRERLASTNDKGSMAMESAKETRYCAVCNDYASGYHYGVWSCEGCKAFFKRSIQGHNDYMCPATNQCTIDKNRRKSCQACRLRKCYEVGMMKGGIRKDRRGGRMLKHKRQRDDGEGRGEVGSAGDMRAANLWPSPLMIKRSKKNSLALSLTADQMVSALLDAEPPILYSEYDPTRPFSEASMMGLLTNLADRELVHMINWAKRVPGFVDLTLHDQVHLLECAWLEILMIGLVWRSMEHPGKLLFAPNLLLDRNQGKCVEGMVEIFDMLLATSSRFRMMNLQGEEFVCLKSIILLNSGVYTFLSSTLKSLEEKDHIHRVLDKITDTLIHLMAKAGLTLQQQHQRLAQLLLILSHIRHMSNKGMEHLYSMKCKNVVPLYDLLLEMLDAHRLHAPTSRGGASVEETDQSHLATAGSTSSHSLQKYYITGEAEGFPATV
Chain of Cytochrome P450 3A4 (P08684 whole entry): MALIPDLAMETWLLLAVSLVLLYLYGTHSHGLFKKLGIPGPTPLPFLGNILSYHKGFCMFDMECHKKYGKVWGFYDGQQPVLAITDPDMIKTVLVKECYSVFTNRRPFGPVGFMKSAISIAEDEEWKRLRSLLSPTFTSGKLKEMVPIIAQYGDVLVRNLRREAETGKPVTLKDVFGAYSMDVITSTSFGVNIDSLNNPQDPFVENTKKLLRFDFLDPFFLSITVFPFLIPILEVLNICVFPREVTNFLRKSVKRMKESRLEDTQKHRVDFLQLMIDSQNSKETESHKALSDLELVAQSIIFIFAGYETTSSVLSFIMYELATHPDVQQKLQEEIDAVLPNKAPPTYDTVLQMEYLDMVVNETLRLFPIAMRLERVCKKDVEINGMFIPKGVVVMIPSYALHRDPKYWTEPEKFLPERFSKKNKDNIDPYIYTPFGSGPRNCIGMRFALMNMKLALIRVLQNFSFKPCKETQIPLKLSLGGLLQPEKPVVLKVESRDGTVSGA
Chain of Nonstructural protein 1 (Q194T2 whole entry): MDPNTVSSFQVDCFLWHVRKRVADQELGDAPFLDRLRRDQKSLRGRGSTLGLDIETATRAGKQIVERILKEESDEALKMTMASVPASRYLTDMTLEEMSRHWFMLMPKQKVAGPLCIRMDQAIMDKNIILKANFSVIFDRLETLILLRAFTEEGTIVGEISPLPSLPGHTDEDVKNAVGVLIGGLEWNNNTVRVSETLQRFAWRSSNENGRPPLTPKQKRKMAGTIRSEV
Chain of FAD-linked sulfhydryl oxidase ALR (P55789 whole entry): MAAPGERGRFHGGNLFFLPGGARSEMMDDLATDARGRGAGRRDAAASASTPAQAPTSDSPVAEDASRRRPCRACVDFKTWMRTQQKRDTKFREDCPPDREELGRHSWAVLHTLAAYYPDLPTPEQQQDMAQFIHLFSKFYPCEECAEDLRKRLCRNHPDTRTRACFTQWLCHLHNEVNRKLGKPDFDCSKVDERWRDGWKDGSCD
Chain of Genome polyprotein (P29990 2492-3391 limits assumed): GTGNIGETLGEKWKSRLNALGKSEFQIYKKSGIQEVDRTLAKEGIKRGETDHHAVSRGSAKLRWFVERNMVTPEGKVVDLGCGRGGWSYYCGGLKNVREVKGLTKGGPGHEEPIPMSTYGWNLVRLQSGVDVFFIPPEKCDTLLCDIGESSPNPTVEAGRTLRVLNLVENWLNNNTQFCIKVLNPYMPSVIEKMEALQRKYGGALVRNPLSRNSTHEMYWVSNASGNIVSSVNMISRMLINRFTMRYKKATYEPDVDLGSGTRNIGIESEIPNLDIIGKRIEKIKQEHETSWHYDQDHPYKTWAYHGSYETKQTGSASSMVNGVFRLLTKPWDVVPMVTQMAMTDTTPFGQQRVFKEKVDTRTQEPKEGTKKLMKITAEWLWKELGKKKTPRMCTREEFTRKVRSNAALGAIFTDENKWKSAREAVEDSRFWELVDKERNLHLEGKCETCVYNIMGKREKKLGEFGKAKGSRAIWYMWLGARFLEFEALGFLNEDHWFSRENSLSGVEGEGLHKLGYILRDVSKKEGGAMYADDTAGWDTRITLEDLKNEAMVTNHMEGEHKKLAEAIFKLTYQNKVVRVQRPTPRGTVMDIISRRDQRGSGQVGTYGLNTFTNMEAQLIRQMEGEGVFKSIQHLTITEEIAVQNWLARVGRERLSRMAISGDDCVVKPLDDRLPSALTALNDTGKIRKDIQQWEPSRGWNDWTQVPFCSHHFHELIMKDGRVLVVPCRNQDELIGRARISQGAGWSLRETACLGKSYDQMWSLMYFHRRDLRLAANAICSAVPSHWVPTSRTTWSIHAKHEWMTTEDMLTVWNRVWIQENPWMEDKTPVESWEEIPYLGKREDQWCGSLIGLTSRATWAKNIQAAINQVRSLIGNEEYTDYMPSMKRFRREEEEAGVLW
Chain of Estrogen receptor beta (Q92731 whole entry): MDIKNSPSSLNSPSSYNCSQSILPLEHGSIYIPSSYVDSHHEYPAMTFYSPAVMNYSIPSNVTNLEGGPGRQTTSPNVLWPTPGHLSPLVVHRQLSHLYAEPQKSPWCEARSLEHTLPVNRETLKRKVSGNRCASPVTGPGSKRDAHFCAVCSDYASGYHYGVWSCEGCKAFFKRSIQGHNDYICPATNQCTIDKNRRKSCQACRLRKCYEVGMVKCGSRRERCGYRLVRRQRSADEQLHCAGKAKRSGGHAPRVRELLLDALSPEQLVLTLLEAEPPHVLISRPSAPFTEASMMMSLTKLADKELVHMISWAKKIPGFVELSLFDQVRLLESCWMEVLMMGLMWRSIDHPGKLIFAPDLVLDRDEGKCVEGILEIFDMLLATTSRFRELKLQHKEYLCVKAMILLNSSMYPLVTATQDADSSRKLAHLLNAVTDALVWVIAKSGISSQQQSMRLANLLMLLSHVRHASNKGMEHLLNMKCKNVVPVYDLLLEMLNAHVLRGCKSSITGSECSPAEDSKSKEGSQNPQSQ
Chain of Ephrin type-A receptor 4 (Q03137 whole entry): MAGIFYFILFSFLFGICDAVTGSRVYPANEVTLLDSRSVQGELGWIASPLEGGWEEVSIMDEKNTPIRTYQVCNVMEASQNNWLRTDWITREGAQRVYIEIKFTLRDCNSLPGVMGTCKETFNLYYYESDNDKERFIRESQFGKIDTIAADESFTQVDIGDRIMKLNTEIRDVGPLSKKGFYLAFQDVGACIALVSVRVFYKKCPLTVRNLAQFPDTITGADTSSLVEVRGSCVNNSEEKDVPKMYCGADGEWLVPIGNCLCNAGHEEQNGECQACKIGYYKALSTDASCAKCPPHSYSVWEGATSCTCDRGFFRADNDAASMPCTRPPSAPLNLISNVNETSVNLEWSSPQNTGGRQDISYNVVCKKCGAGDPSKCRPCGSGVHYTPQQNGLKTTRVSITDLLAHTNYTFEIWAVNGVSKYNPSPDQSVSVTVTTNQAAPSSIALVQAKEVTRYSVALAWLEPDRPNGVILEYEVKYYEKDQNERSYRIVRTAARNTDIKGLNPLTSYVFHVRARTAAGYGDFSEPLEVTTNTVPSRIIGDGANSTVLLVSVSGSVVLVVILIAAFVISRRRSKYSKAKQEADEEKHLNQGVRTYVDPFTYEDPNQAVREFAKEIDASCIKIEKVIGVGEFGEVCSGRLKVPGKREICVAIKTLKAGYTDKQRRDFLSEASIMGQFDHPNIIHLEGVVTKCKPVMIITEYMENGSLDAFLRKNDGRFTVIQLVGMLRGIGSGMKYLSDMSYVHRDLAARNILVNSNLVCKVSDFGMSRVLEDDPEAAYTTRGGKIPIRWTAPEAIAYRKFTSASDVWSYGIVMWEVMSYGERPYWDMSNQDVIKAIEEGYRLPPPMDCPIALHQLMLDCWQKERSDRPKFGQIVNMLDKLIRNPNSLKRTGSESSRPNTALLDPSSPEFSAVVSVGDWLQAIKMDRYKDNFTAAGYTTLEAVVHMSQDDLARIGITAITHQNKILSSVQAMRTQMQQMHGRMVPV

Structure (SMILES): COC(=O)c1sc2nc(-c3ccco3)ccc2c1N
- IC50 [1]: > 50 µM (not active)
- IC50 [2]: 34.7 µM (not active)
- AC50 [3]: 2.84 µM (active)

Structure (SMILES): Oc1ccc(-c2n[nH]cc2-c2nc3ccccc3s2)c(O)c1
- IC50 [4]: > 35 µM (not active)
- IC50 [5]: > 35 µM (not active)

Structure (SMILES): O=C(O)c1ccc(N(c2ccccc2)c2ccccc2)cc1
- IC50 [4]: > 35 µM (not active)
- IC50 [5]: 31.9 µM (not active)
- IC50 [6]: 60.3 µM (active)

Structure (SMILES): CCN1/C(=C/c2ccc3cccc(C)c3[n+]2CC)Sc2ccccc21
- EC50 [7]: 18.6 µM (inconclusive)
- EC50 [8]: 0.37 µM (inconclusive)
- EC50 [9]: 1.19 µM (active)
- EC50 [10]: < 0.03 µM (active)
- EC50 [11]: < 0.1 µM (active)
- IC50 [12]: > 50 µM (not active)
- EC50 [13]: 5.26 µM (active)
- EC50 [14]: 1.17 µM (inconclusive)
- IC50 [15]: 44.1 µM (active)
- EC50 [16]: 13.6 µM (inconclusive)
- EC50 [17]: 1.77 µM (active)
- IC50 [18]: > 100 µM (active)
- AC50 [19]: 8.91 µM (inconclusive)
- EC50 [20]: 0.031 µM (active)
